PubChem BioAssay (NCI)
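Compound exposure: 48 hours, 5 concentrations, 96-well plates. TGI is the concentration that stops growth completely.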

How the values were obtained:
Assay in all cases: inhibition of tumour cell growth, NCI panel, 48 h
[1] = tested on: SK-MEL-5 melanoma
[2] = tested on: A549 NSCLC
[3] = tested on: RPMI-8226 leukemia
[4] = tested on: M14 melanoma
[5] = tested on: BT-549 breast
[6] = tested on: IGROV1 ovarian
[7] = tested on: MDA-MB-435
[8] = tested on: SK-MEL-2 melanoma
[9] = tested on: TK-10 renal
[10] = tested on: SNB-19 CNS
[11] = tested on: SK-OV-3 ovarian
[12] = tested on: SR leukemia
[13] = tested on: NCI-H522 lung
[14] = tested on: OVCAR-4 ovarian
[15] = tested on: A498 renal
[16] = tested on: OVCAR-8 ovarian
[17] = tested on: NCI/ADR-RES ovarian
[18] = tested on: COLO 205 colon
[19] = tested on: PC-3 prostate
[20] = tested on: U251 CNS
[21] = tested on: RXF 393 renal
[22] = tested on: MCF7 breast
[23] = tested on: NCI-H460 lung
[24] = tested on: HCT-116 colon
[25] = tested on: EKVX NSCLC
[26] = tested on: MALME-3M melanoma
[27] = tested on: ACHN renal
[28] = tested on: HS 578T breast
[29] = tested on: OVCAR-3 ovarian
[30] = tested on: HOP-62 NSCLC
[31] = tested on: UACC-62 melanoma
[32] = tested on: NCI-H226 lung
[33] = tested on: SF-539 CNS
[34] = tested on: NCI-H23 lung
[35] = tested on: KM12 colon
[36] = tested on: SW-620 colon
[37] = tested on: K-562 leukemia
[38] = tested on: UACC-257 melanoma
[39] = tested on: SF-295 CNS
[40] = tested on: T-47D breast
[41] = tested on: SNB-75 CNS
[42] = tested on: HOP-92 NSCLC
[43] = tested on: CAKI-1 renal
[44] = tested on: UO-31 renal
[45] = tested on: SN12C renal
[46] = tested on: 786-0 renal
[47] = tested on: DU-145 prostate
[48] = tested on: CCRF-CEM leukemia
[49] = tested on: LOX IMVI melanoma
[50] = tested on: SF-268 CNS
[51] = tested on: HL-60(TB) leukemia
[52] = tested on: HT29 colon
[53] = tested on: HCT-15 colon
[54] = tested on: OVCAR-5 ovarian
[55] = tested on: MDA-N
[56] = tested on: HCC-2998 colon
[57] = tested on: MDA-MB-231 breast
[58] = tested on: MOLT-4 leukemia
[59] = tested on: SK-MEL-28 melanoma

O=c1c2cc(S(=O)(=O)O)ccc2nc(COc2ccc(Oc3ccc(Cl)cc3Cl)cc2)n1C(=S)Nc1ccc(Cl)cc1
TGI [1]: 33.1 µM
TGI [2]: 53.1 µM
TGI [3]: 81.5 µM
TGI [4]: 40.9 µM
TGI [5]: 45.2 µM
TGI [6]: > 100 µM
TGI [7]: 39.3 µM
TGI [8]: 37.4 µM
TGI [9]: 40.4 µM
TGI [10]: > 100 µM
TGI [11]: 49 µM
TGI [12]: 22.9 µM
TGI [13]: 39.8 µM
TGI [14]: 59.3 µM
TGI [15]: 52.5 µM
TGI [16]: 55.3 µM
TGI [17]: 37.9 µM
TGI [18]: 34.1 µM
TGI [19]: > 100 µM
TGI [20]: 35.5 µM
TGI [21]: 31 µM
TGI [22]: 38.3 µM
TGI [23]: 35.8 µM
TGI [24]: 53.3 µM
TGI [25]: 56.6 µM
TGI [26]: 49 µM
TGI [27]: 64.7 µM
TGI [28]: 44.8 µM
TGI [29]: 51.7 µM
TGI [30]: 44.4 µM
TGI [31]: 31 µM
TGI [32]: 42.4 µM
TGI [33]: 31.9 µM
TGI [34]: 36.2 µM
TGI [35]: 71.4 µM
TGI [36]: 49.4 µM
TGI [37]: 30.8 µM
TGI [38]: 60.5 µM
TGI [39]: 39.6 µM
TGI [40]: > 100 µM
TGI [41]: 41.5 µM
TGI [42]: 43.3 µM
TGI [43]: > 100 µM
TGI [44]: 29.7 µM
TGI [45]: 34.7 µM
TGI [46]: 40.4 µM
TGI [47]: 87 µM
TGI [48]: > 100 µM
TGI [49]: 32 µM
TGI [50]: 31.3 µM
TGI [51]: 4.07 µM
TGI [52]: 36.4 µM
TGI [53]: 50.5 µM
TGI [54]: 40.7 µM
TGI [55]: 51 µM

CC(=O)OCC1OC(Oc2cc(C)c(O)cc2C/C=C(\C)CC/C=C(\C)C[C@@H](C=C(C)C)OC(C)=O)C(O)C(OC(C)=O)C1OC(C)=O (some centres not stated)
TGI [1]: 18.7 µM
TGI [2]: > 50 µM
TGI [3]: 24.1 µM
TGI [4]: > 50 µM
TGI [5]: > 50 µM
TGI [56]: 41.2 µM
TGI [6]: > 50 µM
TGI [7]: > 50 µM
TGI [8]: > 50 µM
TGI [9]: > 50 µM
TGI [10]: > 50 µM
TGI [11]: > 50 µM
TGI [13]: > 50 µM
TGI [14]: > 50 µM
TGI [57]: > 50 µM
TGI [15]: 41.9 µM
TGI [16]: > 50 µM
TGI [17]: > 50 µM
TGI [18]: 16.8 µM
TGI [19]: > 50 µM
TGI [20]: > 50 µM
TGI [21]: 34.4 µM
TGI [22]: > 50 µM
TGI [23]: > 50 µM
TGI [24]: > 50 µM
TGI [25]: > 50 µM
TGI [26]: > 50 µM
TGI [27]: > 50 µM
TGI [28]: 39.2 µM
TGI [29]: > 50 µM
TGI [30]: > 50 µM
TGI [31]: > 50 µM
TGI [34]: > 50 µM
TGI [35]: > 50 µM
TGI [36]: > 50 µM
TGI [37]: 35.4 µM
TGI [38]: 39.8 µM
TGI [39]: > 50 µM
TGI [40]: 30.7 µM
TGI [41]: 48.2 µM
TGI [42]: > 50 µM
TGI [43]: > 50 µM
TGI [58]: 20.5 µM
TGI [44]: > 50 µM
TGI [59]: > 50 µM
TGI [45]: > 50 µM
TGI [46]: > 50 µM
TGI [47]: > 50 µM
TGI [48]: 29.4 µM
TGI [49]: 47.3 µM
TGI [50]: > 50 µM
TGI [51]: 21 µM
TGI [52]: > 50 µM
TGI [53]: > 50 µM
TGI [54]: > 50 µM
TGI [55]: > 50 µM

OCCCCCCCCCCCOc1ccc(C2OCC3(CC=CCC3)CO2)cc1 (configuration not stated)
TGI [1]: 80.2 µM
TGI [2]: 45.7 µM
TGI [3]: > 100 µM
TGI [4]: 26 µM
TGI [5]: 30.9 µM
TGI [56]: 38 µM
TGI [6]: 33 µM
TGI [7]: 38 µM
TGI [8]: > 100 µM
TGI [9]: 32.1 µM
TGI [10]: 43.5 µM
TGI [11]: 37 µM
TGI [12]: 17.1 µM
TGI [13]: 23.4 µM
TGI [14]: 34 µM
TGI [57]: 31.4 µM
TGI [16]: 43.1 µM
TGI [17]: 36.3 µM
TGI [18]: 46.8 µM
TGI [19]: 22.8 µM
TGI [20]: 33.2 µM
TGI [22]: 19.6 µM
TGI [23]: 36.5 µM
TGI [24]: 29.3 µM
TGI [25]: 23.8 µM
TGI [26]: 43.4 µM
TGI [27]: 33.3 µM
TGI [28]: 40 µM
TGI [29]: 57.3 µM
TGI [30]: 35.9 µM
TGI [31]: 32.8 µM
TGI [32]: 52.9 µM
TGI [33]: 45.6 µM
TGI [34]: 31.6 µM
TGI [35]: 28.7 µM
TGI [36]: 39.1 µM
TGI [38]: 38.2 µM
TGI [39]: 34.7 µM
TGI [40]: 31 µM
TGI [41]: 28.2 µM
TGI [42]: 32.8 µM
TGI [43]: 31.1 µM
TGI [58]: > 100 µM
TGI [44]: 40.9 µM
TGI [59]: 42.4 µM
TGI [45]: 36.8 µM
TGI [46]: 30.5 µM
TGI [47]: 32.6 µM
TGI [48]: 55.6 µM
TGI [49]: 25.2 µM
TGI [50]: 40.9 µM
TGI [51]: 88.7 µM
TGI [52]: 14.8 µM
TGI [53]: 32.3 µM
TGI [54]: 46.3 µM
TGI [55]: 32 µM
